Experimental data published in the NIST ThermoML archive (doi:10.1021/je050020m).

Test: xn = mol fraction of the nth substance listed
Conditions: Liquid, Vibrating tube method

CCCCCCCCCC [decane] + O=C=O
Conditions | mass density [kg/m3]
313.11 K, 20002 kPa, x2 = 0.9663 | 840.48
313.11 K, 20018 kPa, x2 = 0.4536 | 757.13
313.11 K, 21015 kPa, x2 = 0.9663 | 848.66
313.11 K, 21018 kPa, x2 = 0.4536 | 758.18
313.11 K, 22006 kPa, x2 = 0.4536 | 759.18
313.11 K, 22023 kPa, x2 = 0.9663 | 856.28
313.11 K, 23003 kPa, x2 = 0.4536 | 760.18
313.11 K, 23021 kPa, x2 = 0.9663 | 863.4
313.11 K, 24023 kPa, x2 = 0.4536 | 761.23
313.11 K, 24063 kPa, x2 = 0.9663 | 870.36
313.11 K, 24976 kPa, x2 = 0.9663 | 876.18
313.11 K, 25010 kPa, x2 = 0.4536 | 762.23
313.12 K, 12053 kPa, x2 = 0.8114 | 782.82
313.12 K, 13017 kPa, x2 = 0.8114 | 785.68
313.12 K, 14021 kPa, x2 = 0.8114 | 788.54
313.12 K, 15103 kPa, x2 = 0.8114 | 791.51
313.12 K, 15990 kPa, x2 = 0.8114 | 793.84
313.12 K, 16981 kPa, x2 = 0.8114 | 796.39
313.12 K, 17993 kPa, x2 = 0.8114 | 798.92
313.12 K, 19038 kPa, x2 = 0.8114 | 801.45
313.12 K, 20009 kPa, x2 = 0.8114 | 803.73
313.12 K, 21018 kPa, x2 = 0.8114 | 806.06
313.12 K, 22020 kPa, x2 = 0.8114 | 808.29
313.12 K, 22999 kPa, x2 = 0.8114 | 810.42
313.12 K, 24019 kPa, x2 = 0.8114 | 812.6
313.12 K, 25017 kPa, x2 = 0.8114 | 814.7
323.04 K, 11016 kPa, x2 = 0.9663 | 580.54
323.04 K, 12005 kPa, x2 = 0.8114 | 762.12
323.04 K, 12030 kPa, x2 = 0.9663 | 636.15
323.04 K, 13009 kPa, x2 = 0.8114 | 765.56
323.04 K, 13015 kPa, x2 = 0.9663 | 672.02
323.04 K, 14007 kPa, x2 = 0.9663 | 698.83
323.04 K, 14026 kPa, x2 = 0.8114 | 769
323.04 K, 15008 kPa, x2 = 0.8114 | 772.02
323.04 K, 15021 kPa, x2 = 0.9663 | 721.04
323.04 K, 16018 kPa, x2 = 0.9663 | 739.12
323.04 K, 16046 kPa, x2 = 0.8114 | 775.13
323.04 K, 17018 kPa, x2 = 0.8114 | 777.99
323.04 K, 17026 kPa, x2 = 0.9663 | 754.76
323.04 K, 18002 kPa, x2 = 0.8114 | 780.75
323.04 K, 18010 kPa, x2 = 0.9663 | 768.22
323.04 K, 19001 kPa, x2 = 0.9663 | 780.23
323.04 K, 19025 kPa, x2 = 0.8114 | 783.58
323.04 K, 20025 kPa, x2 = 0.9663 | 791.43
323.04 K, 20031 kPa, x2 = 0.8114 | 786.22
323.04 K, 21021 kPa, x2 = 0.9663 | 801.33
323.04 K, 21047 kPa, x2 = 0.8114 | 788.86
323.04 K, 21988 kPa, x2 = 0.8114 | 791.16
323.04 K, 22023 kPa, x2 = 0.9663 | 810.55
323.04 K, 22999 kPa, x2 = 0.8114 | 793.66
323.04 K, 23026 kPa, x2 = 0.9663 | 819.05
323.04 K, 24016 kPa, x2 = 0.8114 | 796.11
323.04 K, 24036 kPa, x2 = 0.9663 | 827.07
323.04 K, 25030 kPa, x2 = 0.9663 | 834.47
323.04 K, 25054 kPa, x2 = 0.8114 | 798.55
323.05 K, 1989 kPa, x2 = 0.0551 | 710.33
323.05 K, 3015 kPa, x2 = 0.0551 | 711.28
323.05 K, 3984 kPa, x2 = 0.0551 | 712.18
323.05 K, 5002 kPa, x2 = 0.0551 | 713.14
323.05 K, 6010 kPa, x2 = 0.0551 | 714.04
323.05 K, 7043 kPa, x2 = 0.0551 | 714.97
323.05 K, 8018 kPa, x2 = 0.0551 | 715.86
323.05 K, 9009 kPa, x2 = 0.0551 | 716.73
323.05 K, 10008 kPa, x2 = 0.0551 | 717.66
323.05 K, 11036 kPa, x2 = 0.0551 | 718.47
323.05 K, 11995 kPa, x2 = 0.0551 | 719.35
323.05 K, 13035 kPa, x2 = 0.0551 | 720.16
